Laboratory results as given in EPA's ToxValDB 9.5.

Tested on: Mus musculus
[1] = reproduction developmental, oral, gavage, M, C57BL/6, generation: F1, F1: spleen: mean percent splenic CD4+CD25+Foxp3+ T cells
[2] = short-term, duration: 4 weeks, oral, gavage, M, TNF-alpha mRNA levels in liver (normalized to GAPDH)
[3] = short-term, duration: 4 days, dermal, F, BALB/c, body weight + thymus: thymus: absolute weight
[4] = short-term, duration: 10 days, oral, diet, M, C57BL/6, bone marrow: bone marrow: no. of CD19+ B-lymphoid cells + bone marrow: bone marrow: no. of early mature CD19+CD138-IgM+ B cells + bone …
[5] = short-term, duration: 10 days, oral, diet, M, C57BL/6, serum AH50 + serum C3 + serum CH50
[6] = short-term, duration: 10 days, oral, diet, M, C57BL/6, spleen: spleen: absolute weight + thymus: thymus: absolute weight
[7] = short-term, duration: 10 days, oral, diet, M, C57BL/6, spleen: spleen: relative weight + thymus: thymus: relative weight

O=C([O-])C(F)(F)C(F)(F)C(F)(F)C(F)(F)C(F)(F)C(F)(F)C(F)(F)F.[NH4+] [Ammonium perfluorooctanoate]
LOEL (acute, duration: 1 days, injection, intraperitoneal, serum histamine content): 1 mg/kg-day | NOEL (developmental, duration: 9 days, oral, drinking water, F, C57BL/6, generation: F1, F1: IgM antibody titer (SRBC) + F1: spleen: spleen: relative weight + F1: thymus: thymus: relative weight): 6.7 mg/L | NOEL (developmental, duration: 16 days, oral, gavage, F, CD1, generation: F1, F1: spleen: spleen: relative weight (ovx)): 5 mg/kg-day | NOEL (reproduction developmental, oral, diet, M/F, BALB/c, generation: F1, F1: airway MCh sensitivity + F1: airway resistance (at 25 mg/mL methacholine) + F1: lung: BALF inflammatory cell counts: eosinophils + F1: …): 4 ppm | LOEL (reproduction developmental, oral, diet, M/F, BALB/c, generation: F1, F1: airway MCh sensitivity + F1: airway resistance (at 25 mg/mL methacholine) + F1: lung: BALF inflammatory cell counts: macrophages + F1: …): 4 ppm | NOEL (reproduction developmental, oral, gavage, F, C57BL/6, generation: F1, F1: mean serum anti-MBP): 2 mg/kg-day | NOEL (reproduction developmental, oral, gavage, F, C57BL/6, generation: F1, F1: mean serum anti-dsDNA + F1: spleen: mean percent splenic CD4+CD25+Foxp3+ T cells): 0.2 mg/kg-day | LOEL (reproduction developmental, oral, gavage, F, C57BL/6, generation: F1, F1: mean serum anti-ssDNA + F1: spleen (CD4+CD25+): IL-10 levels): 0.02 mg/kg-day | LOEL (reproduction developmental, oral, gavage, F, C57BL/6, generation: F1, F1: spleen: mean percent splenic CD4+CD25+Foxp3+ T cells): 2 mg/kg-day | NOEL (reproduction developmental, oral, gavage, M, C57BL/6, generation: F1, F1: mean serum anti-dsDNA + F1: mean serum anti-MBP + F1: mean serum anti-ssDNA): 2 mg/kg-day | LOEL (reproduction developmental, oral, gavage, M, C57BL/6, generation: F1, F1: spleen (CD4+CD25+): IL-10 levels): 0.02 mg/kg-day | LOEL [1]: 2 mg/kg-day | NOEL [1]: 0.2 mg/kg-day | NOEL (short-term, duration: 3 weeks, oral, diet, M, C57BL/6, fold changes of proinflammatory cytokine genes in liver: IL-1b gene (relative to control) + fold changes of proinflammatory cytokine genes …): 5 mg/kg-day | LOEL (short-term, duration: 3 weeks, oral, diet, M, C57BL/6, fold changes of proinflammatory cytokine genes in liver: IP-10 gene (relative to control) + fold changes of proinflammatory cytokine genes …): 5 mg/kg-day | NOEL (short-term, duration: 3 weeks, oral, gavage, F, BALB/c, IgM antibody level (TNP 1:50)): 20 mg/kg-day | NOEL (short-term, duration: 4 weeks, oral, gavage, M, 129S4/SvlmJ, TNF-alpha mRNA levels in liver (normalized to GAPDH)): 21.6 mg/kg-day | LOEL [2]: 10.8 mg/kg-day | NOEL [2]: 5.39 mg/kg-day | NOEL (short-term, duration: 2 days, oral, diet, M, C57BL/6, spleen: spleen: absolute weight + thymus: thymus: absolute weight + thymus: total thymic DNA content): 0.02% | LOEL (short-term, duration: 2 days, oral, diet, M, C57BL/6, spleen: total splenic DNA content): 0.02% | NOEL (short-term, duration: 4 days, dermal, F, BALB/c, OVA-specific IgE): 1.5% | LOEL (short-term, duration: 4 days, dermal, F, BALB/c, PCA passive cutaneous anaphylaxis): 10 mg/kg-day | LOEL (short-term, duration: 4 days, dermal, F, BALB/c, blood serum: OVA-specific IgE + blood serum: total serum IgE + OVA-specific airway hyperreactivity (AUC) + spleen: spleen B220+ cells + …): 1% | NOEL (short-term, duration: 4 days, dermal, F, BALB/c, blood serum: OVA-specific IgE + blood serum: total serum IgE + OVA-specific airway hyperreactivity (AUC) + thymus: thymus cellularity + …): 0.75% | NOEL (short-term, duration: 4 days, dermal, F, BALB/c, blood serum: OVA-specific IgE + spleen: spleen B220+ cells + spleen: spleen: absolute weight + thymus: thymus: absolute weight + total serum…): 0.5% | LOEL (short-term, duration: 4 days, dermal, F, BALB/c, blood serum: OVA-specific IgE + thymus: thymus: absolute weight + total serum IgE): 0.75% | LOEL [3]: 1.5% | NOEL [3]: 1% | LOEL (short-term, duration: 4 days, dermal, F, BALB/c, spleen: spleen cellularity + spleen: spleen: absolute weight): 0.5% | LOEL (short-term, duration: 5 days, oral, diet, M, C57BL/6, spleen: spleen: absolute weight + spleen: total splenic DNA content + thymus: thymus: absolute weight + thymus: total thymic DNA content): 0.02% | LOEL (short-term, duration: 7 days, oral, diet, M, C57BL/6, blood serum: TNF-alpha levels): 0.02% | LOEL (short-term, duration: 7 days, oral, diet, M, C57BL/6, body weight + spleen: lymphocyte proliferation (ConA) + spleen: lymphocyte proliferation (LPS) + spleen: spleen CD19+ cells + spleen: spleen…): 0.02% | NOEL (short-term, duration: 7 days, oral, diet, M, C57BL/6, cell cycle of splenocytes: G0/G1 phase + cell cycle of splenocytes: G1/2 phase + cell cycle of splenocytes: G2/M phase): 0.02% | LOEL (short-term, duration: 7 days, oral, diet, M, C57BL/6, cell cycle of splenocytes: S phase + cell cycle of thymocytes: G0/G1 phase + cell cycle of thymocytes: G1/2 phase + cell cycle of thymocytes…): 0.02% | LOEL (short-term, duration: 7 days, oral, diet, M, C57BL/6, lymphocyte proliferation in response to ConA (1 day culture) + lymphocyte proliferation in response to ConA (2 day culture) + lymphocyte …): 200 mg/kg-day | NOEL (short-term, duration: 7 days, oral, diet, M, C57BL/6, spleen: splenocytes in G0/1 phase + splenocytes in G1/2 phase + splenocytes in G2/M phase): 200 mg/kg-day | LOEL (short-term, duration: 7 days, oral, diet, M, body weight + spleen: spleen CD19+ cells + spleen: spleen CD3+ cells + spleen: spleen cellularity + thymocyte G0/1 phase + thymocyte G1/2 …): 0.02% | NOEL (short-term, duration: 7 days, oral, diet, M, spleen: lymphocyte proliferation (ConA) + spleen: lymphocyte proliferation (LPS)): 0.02% | LOEL (short-term, duration: 7 days, oral, gavage, F, BALB/c, Peripheral blood phagocytosis (HEMA) + spleen: lymphocyte proliferation (ConA) + spleen: lymphocyte proliferation (LPS) + Splenic NK cell …): 20 mg/kg-day | NOEL (short-term, duration: 7 days, oral, gavage, F, BALB/c, spleen: spleen CD4+ cells + spleen: spleen CD49b+ cells + spleen: spleen CD8+ cells + spleen: spleen cellularity + spleen: spleen: relative …): 20 mg/kg-day | LOEL (short-term, duration: 10 days, oral, diet, M, C57BL/6, IgG1 antibody-secreting cells (HRBC) + IgG1 antibody level (HRBC 1:160) + IgG1 antibody level (HRBC 1:20) + IgG1 antibody level (HRBC 1:80…): 0.02% | NOEL (short-term, duration: 10 days, oral, diet, M, C57BL/6, IgG3 antibody-secreting cells (HRBC) + IgM antibody-secreting cells (HRBC) + IgM antibody level (HRBC 1:160)): 0.02% | LOEL (short-term, duration: 10 days, oral, diet, M, C57BL/6, blood serum: IL-6 levels + blood serum: IL-6 levels (+LPS in vivo) + blood serum: TNF-alpha levels (+LPS in vivo) + bone marrow: IL-6 levels…): 0.02% | NOEL (short-term, duration: 10 days, oral, diet, M, C57BL/6, blood serum: TNF-alpha levels + bone marrow: IL-6 levels + spleen: IL-6 levels): 0.02% | LOEL (short-term, duration: 10 days, oral, diet, M, C57BL/6, bone marrow: bone marrow cellularity + bone marrow: bone marrow: no. of Gr1+CD11b+ myeloid cells + bone marrow: bone marrow: no. of immature…): 0.02% | NOEL (short-term, duration: 10 days, oral, diet, M, C57BL/6, bone marrow: bone marrow cellularity + bone marrow: bone marrow: no. of Gr1+CD11b+ myeloid cells + spleen: spleen cellularity + spleen: …): 0.002% | LOEL [4]: 0.002% | NOEL [4]: 0.001% | NOEL (short-term, duration: 10 days, oral, diet, M, C57BL/6, intrahepatic immune cells: all leukocytes (CD45+) + intrahepatic immune cells: B cells (CD19+) + intrahepatic immune cells: CD138 (plasma …): 0.002% | LOEL (short-term, duration: 10 days, oral, diet, M, C57BL/6, intrahepatic immune cells: all leukocytes (CD45+) + intrahepatic immune cells: B cells (CD19+) + intrahepatic immune cells: cytotoxic T …): 0.002% | NOEL (short-term, duration: 10 days, oral, diet, M, C57BL/6, liver: IFN-gamma levels (+Con A in vivo) + liver: IL-4 levels (+Con A in vivo) + liver: TNF-alpha levels (+Con A in vivo)): 0.002% | LOEL (short-term, duration: 10 days, oral, diet, M, C57BL/6, liver: IFN-gamma levels + liver: IL-4 levels + liver: IL-6 levels + liver: IL-6 levels (+Con A in vivo) + liver: TNF-alpha levels): 0.002% | LOEL [5]: 0.02% | NOEL [5]: 0.01% | NOEL (short-term, duration: 10 days, oral, diet, M, C57BL/6, spleen: relative splenic DNA content): 0.02% | LOEL (short-term, duration: 10 days, oral, diet, M, C57BL/6, spleen: spleen CD19+ cells + spleen: spleen CD3+ cells + spleen: spleen CD4+ cells + spleen: spleen CD8+ cells + spleen: spleen: absolute …): 0.02% | LOEL (short-term, duration: 10 days, oral, diet, M, C57BL/6, spleen: spleen CD19+ cells + spleen: spleen CD4+ cells + spleen: spleen CD8+ cells + spleen: spleen cellularity + spleen: spleen NK1.1+ …): 0.02% | LOEL (short-term, duration: 10 days, oral, diet, M, C57BL/6, spleen: spleen: absolute weight + spleen: spleen: relative weight + spleen: total splenic DNA content + thymus: relative thymic DNA content…): 0.02% | NOEL (short-term, duration: 10 days, oral, diet, M, C57BL/6, spleen: spleen: absolute weight + thymocyte cell proliferation: G0/G1 phase 10 days recovery + thymocyte cell proliferation: G1/2 phase 2 …): 0.02% | LOEL [6]: 0.01% | NOEL [6]: 0.003% | LOEL [7]: 0.01% | NOEL [7]: 0.005%
